The text below walks through data of patent US12172959B2, “Mono- or di-substituted indole derivatives as dengue viral replication inhibitors” (priority 2015, dated 2024).

Broadly, the EC50 is the concentration needed to bring the measured effect to its halfway point. The term CC50 denotes the concentration giving 50% cytotoxicity.

The test system of data set [1] is DENV-2 16681 strain. Nature of the data set: DENV-2 antiviral assay (eGFP fluorescence, Vero cells). Type of data set: cell-based, Dengue virus. The settings on record: DENV-2 16681 eGFP, MOI 0.5, 3 days. How it is done:
The antiviral activity of all the compounds of the invention was tested against the DENV-2 16681 strain which was labeled with enhanced green fluorescent protein (eGPF; Table 1). The culture medium consists of minimal essential medium supplemented with 2% of heat-inactivated fetal calf serum, 0.04% gentamycin (50 mg/mL) and 2 mM of L-glutamine. Vero cells, obtained from ECACC, were suspended in culture medium and 25 μL was added to 384-well plates (2500 cells/well), which already contain the antiviral compounds. Typically, these plates contain a 5-fold serial dilution of 9 dilution steps of the test compound at 200 times the final concentration in 100% DMSO (200 nL). […] Finally, each plate contains wells which are assigned as virus controls (containing cells and virus in the absence of compound), cell controls (containing cells in the absence of virus and compound) and medium controls (containing medium in the absence of cells, virus and compounds). To the wells assigned as medium control, 25 μL of culture medium was added instead of Vero cells. Once the cells were added to the plates, the plates were incubated for 30 minutes at room temperature to allow the cells to distribute evenly within the wells. Next, the plates were incubated in a fully humidified incubator (37° C., 5% CO2) until the next day. Then, DENV-2 strain 16681, labeled with eGFP, was added at a multiplicity of infection (MOI) of 0.5. Therefore, 15 μL of virus suspension was added to all the wells containing test compound and to the wells assigned as virus control. In parallel, 15 μL of culture medium was added to the medium and cell controls. Next, the plates were incubated for 3 days in a fully humidified incubator (37° C., 5% CO2). At the day of the read out, the eGFP fluorescence was measured using an automated fluorescence microscope at 488 nm (blue laser). Using an in-house LIMS system, inhibition dose response curves for each compound were calculated and the half maximal effective concentration (EC50) was determined. Therefore, the percent inhibition (I) for every test concentration is calculated using the following formula: I=100*(ST−SCC)/(SVC−SCC); ST, SCC and SVC are the amount of eGFP signal in the test compound, cell control and virus control wells, respectively. The EC50 represents the concentration of a compound at which the virus replication is inhibited with 50%, as measured by a 50% reduction of the eGFP fluorescent intensity compared to the virus control. The EC50 is calculated using linear interpolation.

Data set [2] concerns Vero cells. The settings on record: African green monkey.

The structures appear in SMILES notation.

`COc1cc(NC(C(=O)c2c[nH]c3cc(F)ccc23)c2ccc(Cl)cc2OC)cc(S(C)(=O)=O)c1` (racemic) [Compound 1, 2-(4-chloro-2-methoxyphenyl)-1-(6-fluoro-1H-indol-3-yl)-2-((3-methoxy-5-(methylsulfonyl)phenyl)amino)ethanone] yielded a concentration giving a half-maximal response (EC50) in data set [1] (Dengue virus, DENV2, Vero, 72 h) of 0.52 nM. The same molecule showed a CC50 in data set [2] of 5500 nM.

Consider `COc1cc(NC(C(=O)c2c[nH]c3cc(F)ccc23)c2ccc(Cl)cc2OC)cc(S(C)(=O)=O)c1` (single isomer, unassigned) [Compound 1B, 2-(4-chloro-2-methoxyphenyl)-1-(6-fluoro-1H-indol-3-yl)-2-((3-methoxy-5-(methylsulfonyl)phenyl)amino)ethanone], for which the EC50 in data set [1] came out at 12 nM. The cytotoxic concentration (CC50) in data set [2] came out at 6500 nM.

In data set [1], `COc1cc(NC(C(=O)c2c[nH]c3c(C)c(F)ccc23)c2ccc(Cl)cc2OC)cc(S(C)(=O)=O)c1` (single isomer, unassigned) [Compound 2B, 2-(4-chloro-2-methoxyphenyl)-1-(6-fluoro-7-methyl-1H-indol-3-yl)-2-((3-methoxy-5-(methylsulfonyl)phenyl)amino)ethanone] came in with an EC50 of 26 nM. The same molecule gave a cytotoxic concentration (CC50) in data set [2] of 7400 nM.

As for `COc1cc(NC(C(=O)c2c[nH]c3cc(OC)ccc23)c2ccc(Cl)cc2OC)cc(S(C)(=O)=O)c1` (single isomer, unassigned) [Compound 3B, 2-(4-chloro-2-methoxyphenyl)-1-(6-methoxy-1H-indol-3-yl)-2-((3-methoxy-5-(methylsulfonyl)phenyl)amino)ethanone], the EC50 in data set [1] stood at 3.8 nM. This molecule displayed a CC50 in data set [2] greater than 9700 nM.

`COc1cc(NC(C(=O)c2c[nH]c3cc(OC)c(C)cc23)c2ccc(Cl)cc2OC)cc(S(C)(=O)=O)c1` (single isomer, unassigned) [Compound 4B, 2-(4-chloro-2-methoxyphenyl)-2-((3-methoxy-5-(methyl-sulfonyl)phenyl)amino)-1-(6-methoxy-5-methyl-1H-indol-3-yl)ethanone]: the half-maximal effective concentration (EC50) in data set [1] worked out at 36 nM. Also, in data set [2], the CC50 was 12000 nM.

Molecule `COc1cc(NC(C(=O)c2c[nH]c3cc(OC)c(F)cc23)c2ccc(Cl)cc2OC)cc(S(C)(=O)=O)c1` (single isomer, unassigned) [Compound 5B, 2-(4-chloro-2-methoxyphenyl)-1-(5-fluoro-6-methoxy-1H-indol-3-yl)-2-((3-methoxy-5-(methylsulfonyl)phenyl)amino)ethanone] displayed an EC50 in data set [1] of 68 nM. In data set [2], this molecule had a CC50 of 13000 nM.

The molecule `COc1cc(NC(C(=O)c2c[nH]c3c(C)c(OC)ccc23)c2ccc(Cl)cc2OC)cc(S(C)(=O)=O)c1` (single isomer, unassigned) [Compound 6B, 2-(4-chloro-2-methoxyphenyl)-2-((3-methoxy-5-(methyl-sulfonyl)phenyl)amino)-1-(6-methoxy-7-methyl-1H-indol-3-yl)ethanone] displayed a concentration for a half-maximal effect (EC50) in data set [1] of 19 nM. The same molecule returned a cytotoxic concentration (CC50) in data set [2] of 11000 nM.

Consider `COc1cc(NC(C(=O)c2c[nH]c3cc(F)c(C)cc23)c2ccc(Cl)cc2OC)cc(S(C)(=O)=O)c1` (single isomer, unassigned) [Compound 7A, 2-(4-chloro-2-methoxyphenyl)-1-(6-fluoro-5-methyl-1H-indol-3-yl)-2-((3-methoxy-5-(methylsulfonyl)phenyl)amino)ethanone], for which the EC50 in data set [1] is 13 nM. This molecule also displayed a half-maximal cytotoxic concentration (CC50) in data set [2] of 6800 nM.

For `COc1cc(NC(C(=O)c2c[nH]c3ccc(C(F)(F)F)cc23)c2ccc(Cl)cc2OC)cc(S(C)(=O)=O)c1` (single isomer, unassigned) [Compound 8A, 2-(4-chloro-2-methoxyphenyl)-2-((3-methoxy-5-(methyl-sulfonyl)phenyl)amino)-1-(5-(trifluoromethyl)-1H-indol-3-yl)ethanone], the EC50 in data set [1] stood at 3 nM. This molecule also displayed a cytotoxic concentration (CC50) in data set [2] of 7400 nM.

In data set [1], `COc1cc(NC(C(=O)c2c[nH]c3ccc(OC(F)(F)F)cc23)c2ccc(Cl)cc2OC)cc(S(C)(=O)=O)c1` (single isomer, unassigned) [Compound 9B, 2-(4-chloro-2-methoxyphenyl)-2-((3-methoxy-5-(methyl-sulfonyl)phenyl)amino)-1-(5-(trifluoromethoxy)-1H-indol-3-yl)ethanone] displayed an EC50 of 3.8 nM. For the same molecule, the CC50 in data set [2] stood at 6200 nM.

`COc1cc(NC(C(=O)c2c[nH]c3cc(OC)c(OC(F)(F)F)cc23)c2ccc(Cl)cc2OC)cc(S(C)(=O)=O)c1` (single isomer, unassigned) [Compound 10B, 2-(4-chloro-2-methoxyphenyl)-2-((3-methoxy-5-(methylsulfonyl)phenyl)amino)-1-(6-methoxy-5-(trifluoromethoxy)-1H-indol-3-yl)ethanone] yielded an EC50 in data set [1] of 3.9 nM. In data set [2], this molecule displayed a cytotoxic concentration (CC50) of 9800 nM.

As to `COc1cc(NC(C(=O)c2c[nH]c3c(C)cc(OC(F)(F)F)cc23)c2ccc(Cl)cc2OC)cc(S(C)(=O)=O)c1` (single isomer, unassigned) [Compound 11B, 2-(4-chloro-2-methoxyphenyl)-2-((3-methoxy-5-(methylsulfonyl)phenyl)amino)-1-(7-methyl-5-(trifluoromethoxy)-1H-indol-3-yl)ethanone], the concentration giving a half-maximal response (EC50) in data set [1] came to 4.1 nM. This molecule returned a CC50 in data set [2] of 9200 nM.
